Source: patent publication US20250243227A1, “IDURONIDASE STABILIZERS AND USES THEREOF” (Academia Sinica, priority 2022, published 2025)

Key:
[1] = target: recombinant human α-IDUA (rh-α-IDUA, Aldurazyme®) (Homo sapiens (Human), UniProt P35475); test: IDUA inhibition assay (fluorogenic substrate 4MU-IdoA); assay type: biochemical; settings: for IC50: apparent IC50 against rh-α-IDUA, 4-MU-IdoA substrate, pH 3.5
Protocol: Compounds were mixed with recombinant human α-IDUA (rh-α-IDUA, Aldurazyme®, 1.2 nM as the final concentration) and the fluorogenic substrate, […] (4MU-IdoA; Cayman), at a final concentration of 100 μM in pH 3.5 buffer (50 mM NaOAc and 150 mM NaCl), then incubated in a 384-well microplate at 37° C. for 30 min. Stop solution (500 mM Na2CO3, pH 10.8) was added and fluorescence was read on a CLARIOstar® microplate reader (BMG LABTECH) at 355 nm excitation and 460 nm emission. Raw fluorescence counts were background subtracted, as defined by counts from substrate solution only. Inhibitory screening was performed and the active compounds were selected and further tested at lower concentration to determine their IC50 values and Ki values.
The compounds of Example 1 were evaluated on their inhibitory potential against rh-α-IDUA, and their apparent IC50 values were determined by using the fluorogenic substrates 4-methylumbelliferyl-α-iduronide (4-MU-IdoA) and results are shown in Table 1.

[2] = target: T1, rh-α-IDUA in GM01391 fibroblasts (Homo sapiens (Human), UniProt P35475); test: Cell-based rh-α-IDUA stabilization: intracellular IDUA activity in GM01391 fibroblasts; settings: for enhancement of IDUA activity versus rh-α-IDUA alone / change of IDUA activity on co-treatment versus rh-α-IDUA alone: rh-α-IDUA 0.1 nM + compound 100 μM (100 aM/100 M [sic] in the source)
Protocol: (§1) FIG. 1. The cell-based rh-α-IDUA stabilization study of the compounds of Example 1/rh-α-IDUA in GM01391 fibroblasts. (A) Preliminary cell-based screening of compounds of Example 1 by the co-treatment of rh-α-IDUA (0.1 nM) with 12 or 27b ([…]); (B) A dose-dependent experiment for 12, 27a, or 27b with 1 nM of rh-α-IDUA; (C) Co-treatment of 12 and rh-α-IDUA (1 or 0.1 nM) on IDUA activity; and (D) 12/rh-α-IDUA co-treatment on HS reduction in cells. Each bar represents the mean±SD of three determinations. *P<0.05; **P<0.01; ***P<0.001 compared to rh-α-IDUA alone, as determined by one-way ANOVA with Dunnett post-hoc analysis.
To this purpose, GM01391 fibroblasts were treated with a combination of rh-α-IDUA (0.1 nM) and compounds 12, and 27a-c ([…]); or with rh-α-IDUA for 1 day, followed by a 1-day wash-out. To measure the intracellular IDUA activity, the corresponding cells were harvested and lysed before the incubation with the fluorogenic substrate. Results are illustrated in FIG. 1.

[3] = tested on: heparan sulfate (HS) in GM01391 fibroblasts; test: Cell-based HS analysis (LC-MS/MS of HS disaccharides) in GM01391 fibroblasts; design: species or system human; settings: co-treatment with rh-α-IDUA
Protocol: as §1
Generally, accumulation of GAGs could be observed in MPS patients due to the dysfunction of any lysosomal enzymes involved in the degradation of GAGs including IDUA associated with MPSI, which means the enhanced efficacy of protein drugs by the co-treatment with protein stabilizers could be evaluated more directly by the improved reduction of GAGs than the increased activity of MPS-related lysosomal enzymes. As a result, a robust method for quantitative detection of HS, one of the types of GAGs excessively stored in MPS I patients, was established by us for the evaluation of potential therapeutic effect of compound 12 in MPSI. […]

[4] = target: rh-α-IDUA in GM02846 fibroblasts (Homo sapiens (Human), UniProt P35475); test: Cell-based rh-α-IDUA stabilization: IDUA activity in GM02846 fibroblasts; settings: co-treatment with rh-α-IDUA
Text: (§2) FIG. 2. The cell-based rh-α-IDUA stabilization study of 12/rh-α-IDUA in GM02846 fibroblasts. (A) IDUA activity, and (B) the reduction of HS; Each bar represents the mean±SD of three determinations. *P<0.05; **P<0.01; ***P<0.001 compared to rh-α-IDUA alone, as determined by one-way ANOVA with Dunnett post-hoc analysis.
(§3) HS of the in situ treated fibroblasts were extracted and chemically cleaved to generate HS disaccharides as the released biomarker, which could be quantitatively measured via LC-MS/MS with a synthesized novel disaccharide by us as the internal standard. With this established method for cell-based HS analysis, the qualified CIdoA analogue 12 was further evaluated.

[5] = tested on: heparan sulfate (HS) in GM02846 fibroblasts; test: Cell-based HS analysis (LC-MS/MS of HS disaccharides) in GM02846 fibroblasts; design: species or system human; settings: combination with rh-α-IDUA
Text: as §2
Generally, accumulation of GAGs could be observed in MPS patients due to the dysfunction of any lysosomal enzymes involved in the degradation of GAGs including IDUA associated with MPSI, which means the enhanced efficacy of protein drugs by the co-treatment with protein stabilizers could be evaluated more directly by the improved reduction of GAGs than the increased activity of MPS-related lysosomal enzymes. As a result, a robust method for quantitative detection of HS, one of the types of GAGs excessively stored in MPS I patients, was established by us for the evaluation of potential therapeutic effect of compound 12 in MPSI.
as §3

[6] = target: T1, rh-α-IDUA in GM01391 fibroblasts; test: Cell-based rh-α-IDUA stabilization: intracellular IDUA activity in GM01391 fibroblasts; settings: co-treatment with rh-α-IDUA; 1-day treatment followed by 8-day wash-out; data not shown
[7] = rh-α-IDUA 1 nM + compound 500 μM

T1 sequence (P35475 26-653): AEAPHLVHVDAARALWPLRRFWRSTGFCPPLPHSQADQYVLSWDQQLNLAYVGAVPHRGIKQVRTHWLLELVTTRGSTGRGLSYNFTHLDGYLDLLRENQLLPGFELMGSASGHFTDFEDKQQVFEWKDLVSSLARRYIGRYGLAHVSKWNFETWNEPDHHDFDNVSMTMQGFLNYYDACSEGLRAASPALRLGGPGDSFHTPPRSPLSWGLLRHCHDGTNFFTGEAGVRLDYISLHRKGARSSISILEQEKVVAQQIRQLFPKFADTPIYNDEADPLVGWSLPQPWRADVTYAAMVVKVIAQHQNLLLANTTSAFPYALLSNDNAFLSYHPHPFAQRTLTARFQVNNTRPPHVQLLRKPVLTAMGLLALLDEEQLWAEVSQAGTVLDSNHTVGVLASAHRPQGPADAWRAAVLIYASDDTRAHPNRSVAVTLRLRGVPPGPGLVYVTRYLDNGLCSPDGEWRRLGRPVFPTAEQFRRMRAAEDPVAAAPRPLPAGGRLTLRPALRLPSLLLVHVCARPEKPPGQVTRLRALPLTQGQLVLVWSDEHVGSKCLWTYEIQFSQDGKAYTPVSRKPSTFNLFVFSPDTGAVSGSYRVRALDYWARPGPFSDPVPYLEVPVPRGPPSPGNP
recombinant human α-IDUA (rh-α-IDUA, Aldurazyme®), sequence (P35475 26-653): as above
rh-α-IDUA in GM02846 fibroblasts, sequence (P35475 26-653): as above

Q: Which Ki ([1]; against rh-α-IDUA) does the source give for NCC[C@@H]1O[C@@H](C(=O)O)[C@@H](O)[C@H](O)[C@H]1O [Compound 12] here?
A: Its Ki is 4 µM.

Q: What about the IC50 [1] of the same molecule?
A: The IC50 was 6.7 µM.

Q: And the “enhancement of IDUA activity versus rh-α-IDUA alone” value ([2]; 1 day, 1-day wash-out)?
A: Its value is 1.4 fold.

Q: What about the “IDUA activity with combined treatment versus rh-α-IDUA alone” value [2, 7] of the same molecule?
A: Its value is “three”.

Q: And the “IDUA activity, dose-dependence of co-treatment versus rh-α-IDUA alone” value ([2]; rh-α-IDUA 1 or 0.1 nM)?
A: The value was “enhanced by the 12/rh-α-IDUA co-treatment in a dose-dependent manner”.

Q: What about the “reduction of accumulated HS versus rh-α-IDUA alone” value [3] of the same molecule?
A: Its value is “statistically significantly improved reduction”.

Q: What about the “rh-α-IDUA activity on co-treatment” value [4] of the same molecule?
A: The value was “dose-dependently enhanced”.

Q: And the “reduction of HS versus rh-α-IDUA alone” value [5]?
A: Its value is “significant reduction of HS”.

Q: What about the “time course of enhancement of IDUA activity” value [6] of the same molecule?
A: The value was “could be maintained”.

Q: For NCC[C@@H]1N[C@@H](C(=O)O)[C@@H](O)[C@H](O)[C@H]1O [Compound 23], which “IC50 (μM), NI = no inhibition at 250 μM” value ([1]; 250 μM compound, rh-α-IDUA) is on record?
A: The value was “NI^a (NI refers to less than 10% inhibition at 250 μM.)”.

Q: Which IC50 [1] does the source give for O=C(Cc1ccc(OP(=O)(O)O)cc1)NCC[C@@H]1O[C@@H](C(=O)O)[C@@H](O)[C@H](O)[C@H]1O [Compound 27a] here?
A: The IC50 was 5.4 ± 0.5 µM.

Q: What about the “change of IDUA activity on co-treatment versus rh-α-IDUA alone” value ([2]; 1 day, 1-day wash-out) of the same molecule?
A: The value was “barely improved”.

Q: What about the “IDUA activity on co-treatment at 500 μM” value [2, 7] of the same molecule?
A: The value was “suppressed”.

Q: O=C(Cc1cccc(OP(=O)(O)O)c1)NCC[C@@H]1O[C@@H](C(=O)O)[C@@H](O)[C@H](O)[C@H]1O [Compound 27b] was tested. Which IC50 [1] did it give?
A: Its IC50 is 4 ± 0.5 µM.

Q: And the “enhancement of IDUA activity versus rh-α-IDUA alone” value ([2]; 1 day, 1-day wash-out)?
A: The value was 1.6 fold.

Q: And the “enhancement of IDUA activity at 500 μM” value [2, 7]?
A: The value was 1.7 fold.

Q: Which results are given for O=C(Cc1ccccc1OP(=O)(O)O)NCC[C@@H]1O[C@@H](C(=O)O)[C@@H](O)[C@H](O)[C@H]1O [Compound 27c]?
A: IC50 [1]: 1 µM; change of IDUA activity on co-treatment versus rh-α-IDUA alone ([2]; 1 day, 1-day wash-out): moderate reduction of IDUA activity

B1: rh-α-IDUA: recombinant human α-iduronidase, enzyme replacement protein (Aldurazyme®) (protein, UniProt P35475 28-653, looked up)
Alpha-L-iduronidase: APHLVHVDAARALWPLRRFWRSTGFCPPLPHSQADQYVLSWDQQLNLAYVGAVPHRGIKQVRTHWLLELVTTRGSTGRGLSYNFTHLDGYLDLLRENQLLPGFELMGSASGHFTDFEDKQQVFEWKDLVSSLARRYIGRYGLAHVSKWNFETWNEPDHHDFDNVSMTMQGFLNYYDACSEGLRAASPALRLGGPGDSFHTPPRSPLSWGLLRHCHDGTNFFTGEAGVRLDYISLHRKGARSSISILEQEKVVAQQIRQLFPKFADTPIYNDEADPLVGWSLPQPWRADVTYAAMVVKVIAQHQNLLLANTTSAFPYALLSNDNAFLSYHPHPFAQRTLTARFQVNNTRPPHVQLLRKPVLTAMGLLALLDEEQLWAEVSQAGTVLDSNHTVGVLASAHRPQGPADAWRAAVLIYASDDTRAHPNRSVAVTLRLRGVPPGPGLVYVTRYLDNGLCSPDGEWRRLGRPVFPTAEQFRRMRAAEDPVAAAPRPLPAGGRLTLRPALRLPSLLLVHVCARPEKPPGQVTRLRALPLTQGQLVLVWSDEHVGSKCLWTYEIQFSQDGKAYTPVSRKPSTFNLFVFSPDTGAVSGSYRVRALDYWARPGPFSDPVPYLEVPVPRGPPSPGNP
Q: How did the “IDUA activity after treatment with rh-α-IDUA alone” value ([2]; rh-α-IDUA 0.1 nM, 1 day, 1-day wash-out) turn out when B1 was run?
A: Its value is “dramatically increased”.
